Measured values reported in US20220290200A1, “GENETICALLY MODIFIED HOST CELLS PRODUCING GLYCOSYLATED CANNABINOIDS” (OCTARINE BIO IVS, priority 2019, published 2022).

Tested on: Caco-2 cells
Assay: Caco-2 bi-directional permeability assay
Type: in vitro ADME, human
Conditions: for efflux ratio compared to CBD / permeability coefficient (Papp) A to B and B to A compared to unmodified CBD: Caco-2, 10 μM; for efflux ratio compared to CBD / permeability coefficient (Papp) A to B and B to A compared to unmodified CBD / Mean recovery (%), Direction A→B / Mean Papp, Direction A→B / Mean recovery (%), Direction B→A / Mean Papp, Direction B→A: 120 min; for % recovery compared to CBD: Caco-2, both compartments; for Mean recovery (%), Direction A→B / Mean Papp, Direction A→B: apical to basolateral; for Mean Papp, Direction A→B / Mean Papp, Direction B→A: mean and standard deviation of duplicates; for Mean recovery (%), Direction B→A / Mean Papp, Direction B→A: basolateral to apical; for Efflux ratio: ratio of B−A and A−B permeabilities
Protocol: Intestinal permeability of cannabinoids and glycosylated cannabinoids was determined by measuring bi-directional transport across Caco-2 cell membranes. Caco-2 cells are used as an in vitro model of the human intestinal epithelium and permit assessment of the intestinal permeability of potential drugs. The test compound is added to either the apical or basolateral side of a confluent monolayer of Caco-2 cells and permeability is measured by monitoring the appearance of the test compound on the opposite side of the monolayer using LC-MS/QTOF. When performing a bi-directional assay, the efflux ratio (ER) is calculated from the ratio of B−A and A−B permeabilities. Caco-2 cells obtained from the ATCC are used between passage numbers 40-60. Cells are seeded onto Millipore Multiscreen Transwell plates at 1×10^5 cells/cm2. The cells are cultured in DMEM and media is changed every two or three days. On day 20 the permeability study is performed. Cell culture and assay incubations are carried out at 37° C. in an atmosphere of 5% CO2 with a relative humidity of 95%. On the day of the assay, the monolayers are prepared by rinsing both apical and basolateral surfaces twice with Hanks Balanced Salt Solution (HBSS) at the desired pH warmed to 37° C. Cells are then incubated with HBSS at the desired pH in both apical and basolateral compartments for 40 min to stabilize physiological parameters. 10 mM solutions of cannabinoids and cannabinoid glycosides are prepared in DMSO then diluted with assay buffer to give a final test compound concentration of 10 μM (final DMSO concentration of 1% v/v). The fluorescent integrity marker lucifer yellow is also included in the solution.
Analytical standards are prepared from test compound DMSO dilutions and transferred to buffer, maintaining a 1% v/v DMSO concentration. For assessment of A−B permeability, HBSS is removed from the apical compartment and replaced with test compound solution. The apical compartment insert is then placed into a companion plate containing fresh buffer (containing 1% v/v DMSO). For assessment of B−A permeability, HBSS is removed from the companion plate and replaced with test compound solution. Fresh buffer (containing 1% v/v DMSO) is added to the apical compartment insert, which is then placed into the companion plate. At 120 min the apical compartment inserts and the companion plates are separated and apical and basolateral samples diluted for analysis. Test compound permeability is assessed in duplicate. Compounds of known permeability characteristics are run as controls on each assay plate. Test and control compounds are quantified by LC-MS/QTOF as described above. The starting concentration (C0) is determined from the solution and the experimental recovery calculated from C0 and both apical and basolateral compartment concentrations. The integrity of the monolayer throughout the experiment is checked by monitoring lucifer yellow permeation using fluorometric analysis. The permeability coefficient (Papp) for each compound is calculated from the following equation: Papp=(dQ/dt)/(C0×A) Where dQ/dt is the rate of permeation of the drug across the cells, C0 is the donor compartment concentration at time zero and A is the area of the cell monolayer. C0 is obtained from analysis of the dosing solution. The efflux ratio (ER) is calculated from mean Papp values from A−B and B−A data. This is derived from: ER=Papp(B−A)/Papp(A−B). The % recovery is calculated from the following equation; % recovery=(Total compound in donor and receiver compartment at end of experiment)/(initial compound present)×100.
CBD glycosides were produced using glycosyl transferases and purified as described above. […] Low recovery of compound in a Caco-2 permeability assay can indicate problems with poor solubility, binding of the compound to the plate, metabolism by the Caco-2 cells or accumulation of the compound in the cell monolayer.

Compound | efflux ratio compared to CBD | permeability coefficient (Papp) A to B and B to A compared to unmodified CBD | % recovery compared to CBD | Mean recovery (%), Direction A→B [%] | Mean Papp, Direction A→B | Mean recovery (%), Direction B→A [%] | Mean Papp, Direction B→A | Efflux ratio
C=C(C)[C@@H]1CCC(C)=C[C@H]1c1c(O)cc(CCCCC)cc1O[C@@H]1O[C@H](CO)[C@@H](O)[C@H](O)[C@H]1O [OB1, CBD-1′-O-β-D-glucoside] | higher efflux ratio | significantly higher permeability coefficients in both directions | successively higher rates of recovery | 69.8 | 10.40 ± 0.31 10^−6 cms^−1 | 79.7 | 35.70 ± 0.34 10^−6 cms^−1 | 3.43
C=C(C)[C@@H]1CCC(C)=C[C@H]1c1c(O[C@@H]2O[C@H](CO)[C@@H](O)[C@H](O)[C@H]2O)cc(CCCCC)cc1O[C@@H]1O[C@H](CO)[C@@H](O)[C@H](O)[C@H]1O [OB6, CBD-1′-O-β-D-glucosyl-3′-O-β-D-glucoside] | higher than both CBD and OB1 | permeability coefficients were lower | successively higher rates of recovery | 91.9 | 0.10 ± 0.05 10^−6 cms^−1 | 87.8 | 0.44 ± 0.17 10^−6 cms^−1 | 4.31
